Source: patent publication US7682635B2, “Aqueous dispersions of nanometric or micrometric particles for encapsulating chemical compounds” (Centre National de la Recherche Scientifique (C.N.R.S.), priority 2002, dated 2010)

Assay: Encapsulation of benzophenone in particles (ultracentrifugation, spectrophotometry of supernatant at 261 nm)
Format: physicochemical
Protocol: An aqueous solution of polymer P2 as defined in Example 1 (0.44 g/l) was produced, to which benzophenone was added with a molar ratio of benzophenone added: cyclodextrin equal to 1:1. This solution was left under agitation for 24 hours.
A composition of particles was prepared by mixture of 1 ml of the solution thus obtained with 1 ml of a solution of modified dextran DM3 as defined in Example 1 (0.44 g/l).
After mixture, the particles produced were ultracentrifuged (30 minutes at 40000 r.p.m. in a Beckman L7-55 centrifuge). The non-encapsulated benzophenone present in the supernatant was dosaged by spectrophotometry (absorption line at 261 nm).
The experiment was repeated using a molar ratio of benzophenone added: cyclodextrin equal to 1:3 for the solution of polymer P2.
The experiment was also repeated using modified dextran DM4 instead of DM3.
Finally, the experiment was also repeated using a molar ratio of benzophenone added cyclodextrin equal to 1:3 for the solution of polymer P2 and also replacing the modified dextran DM3 by DM4.

With O=C(c1ccccc1)c1ccccc1 [benzophenone] the “benzophenone initially introduced found in the supernatant” value (4 cases: P2 with DM3 or DM4, benzophenone:cyclodextrin 1:1 or 1:3, after ultracentrifugation) was “less than 70%”, the “benzophenone content of particles” value (molar ratio benzophenone:cyclodextrin 1:1 in the initial solution of P2) was 1 % by mass and the “benzophenone content of particles” value (molar ratio benzophenone:cyclodextrin 1:3) was 3 % by mass.
